# Measurements as given in publication PMC5321741, “Arylmethylamino steroids as antiparasitic agents” (Nature Communications, 2017).
# Several values for one entry are separate records, joined by “and”; a condition that tells them apart may be missing. Equal entries are not always repeated. Where two headings read alike, the source gives them in different places.
# What was measured:
# [1] = system: P. berghei GFP ANKA malaria strain; assay: P. berghei mouse model (Peter's test); type: in vivo, Plasmodium berghei in NMRI mice
# Method: The animal experiments described here were performed at the Swiss Tropical and Public Health Institute (Swiss TPH, Basel, Switzerland), they were approved by the Swiss Cantonal Authorities (‘Kantonales Veterinäramt Basel Stadt') adhering to local and national regulations of laboratory animal welfare in Switzerland. The best compounds were tested in the murine P. berghei model essentially as described. The infection was initiated at day 0 with the P. berghei GFP ANKA malaria strain (donation from AP Waters and CJ Janse, Leiden University). From donor mice (female NMRI mice, 18–20 grams (about 3 weeks) from Charles River Germany) with ∼30% parasitaemia, heparinized blood was taken and diluted in physiological saline to 10^8 parasitized erythrocytes/ml. An aliquot (0.2 ml) of this suspension was injected intravenously into experimental and control groups of mice (female NMRI mice, 18–20 grams (about 3 weeks) from Charles River Germany). Usually, in untreated control mice parasitaemia rose regularly to ∼30% by day 3 post-infection. Control mice died between days 6 and 7 post infection. In the experiments described here, however, control animals (n=5) were killed on day 4 post infection for ethical reasons.
# The steroid compounds were prepared at an appropriate concentration as a solution/suspension in Tween 80/alcohol (7:3, Tween 80 and absolute ethanol, respectively), followed by a 10x dilution in water. […] The route of administration was i.p., p.o., s.c. in a volume of 10 ml kg^−1.
# The degree of infection (parasitaemia expressed in % of infected erythrocytes) was determined by FACS analysis on day 4 (96 h post infection). The difference of the mean infection rate of the control group (=100%) to the test group was calculated and expressed as a percent reduction. For example, activity determination with a mean of 2% parasitaemia in treated mice and a mean of 40% parasitaemia in the control animals is calculated as follows: (40−2%)/40% × 100=95% activity. The survival time in days was recorded up to 30 days after infection. A compound was considered curative if the animal survived to day 30 after infection with no detectable parasites (confirmed by light microscopy).
# [2] = hepatic microsome stability; type: in vitro ADME; conditions: for remaining at 1 h: liver microsomes, read-out: Hepatic Microsome Stability % remaining after 1 h
# Method: Pharmacokinetic data were obtained for compound 1o at the Sanford-Burnham Medical Research Institute according to established procedures. Compound solubility in an aqueous solution was measured using an automated kinetic solubility method. The concentration of the compound in a saturated pH-buffered aqueous solution was determined via UV absorbance (250–498 nm) and compared with the spectra of a precipitation-free reference solution. The plasma stability of the compound was determined at a single concentration using species-specific plasma. The percentage of parent compound remaining after 3 h was determined via LC-MS/MS. The percentage of compound 1o bound to plasma proteins was determined through rapid equilibrium dialysis and quantified via LC-MS/MS. Metabolic stability of the compound was determined at a single concentration using species-specific liver microsomes that contained cytochrome P450s, flavin-monooxygenases, carboxyl-esterases, epoxide hydrolases, and other drug-metabolizing enzymes. The quantification was carried out via LC-MS/MS. Membrane permeability of compound 1o was measured using an in vitro model for the passive transport from the gastrointestinal tract into the blood system. A double-sink parallel artificial membrane permeability assay PAMPA, in a 96-well format was employed.
# [3] = system: P. berghei asexual stages; assay: ex vivo drug assay (luciferase), asexual stages; type: cell-based; conditions: Plasmodium berghei, 24 h, read-out: IC50 against P. berghei ex vivo
# Method: Plates frozen at −80 °C were thawed at 37 °C. The cells were lysed at room temperature in 10 μl 1x luciferin lysis buffer (Luciferase Cell Culture Lysis 5 × reagent, Promega), and 100 μl luciferase assay substrate was added to each well (Luciferase Assay System, Promega). Luciferase activity was measured on a luminescence plate reader (Mithras LB940 luminometer, Berthold Technologies). The mean of the luciferase activity was calculated for each technical triplicate and normalized as follows: (Lucx−LucRBC)/(Lucsolvent−LucRBC) with Lucx and Lucsolvent=mean luciferase activity for parasites incubated with compound x and with solvent (DMSO for 1o and PBS for MB), respectively, and LucRBC=mean luciferase activity of non-infected red blood cells (background). IC50 values were calculated using Prism (GraphPad, log(inhibitor) versus normalized response—variable slope) in three independent experiments for the P. falciparum gametocyte assay and five for the P. berghei ex vivo drug assay.
# The animal experiments described in this part were performed at the Institut de Biologie Moléculaire et Cellulaire (Strasbourg, France), using facilities and protocols adhering to national regulations of laboratory animal welfare in France. […] Parasitaemia was monitored via FACS analysis (FACSCalibur, BD Bioscience). […]
# [4] = 4x 100 mg/kg i.p., recorded up to 30 days
# [5] = 4x 100 mg/kg p.o., recorded up to 30 days
structure (smiles),measurement,setting,value
COc1ccc2c(c1)CCC1C2CC[C@@]2(C)C1CC[C@H]2NCc1cc2ccccc2cc1O (stereo partly drawn) [1o],% activity (reduction of parasitaemia),[1]; 1x 100 mg/kg p.o.,98%
same,% of control,[1]; 1x 100 mg/kg p.o.,1.5%
same,"Mouse survival in days, Average",[1]; 1x 100 mg/kg p.o.,13 days
same,"Mouse survival in days, individual mice M1-M3",[1]; 1x 100 mg/kg p.o.,14 days (2×) and 11 days
same,"Parasitized RBC over 100, Average",[1]; 1x 100 mg/kg p.o.,0.47
same,"Parasitized RBC over 100, individual mice M1-M3",[1]; 1x 100 mg/kg p.o.,0.30 and 0.60 and 0.50
same,"Parasitized RBC after 30 d (microscope), individual mice",[1]; 4x 100 mg/kg i.p.,0.0
same,% activity (reduction of parasitaemia),"[1]; 4x 100 mg/kg i.p., day 4",99.8%
same,% of control,"[1]; 4x 100 mg/kg i.p., day 4",0.17%
same,"Parasitized RBC over 100, Average","[1]; 4x 100 mg/kg i.p., day 4",0.10
same,"Parasitized RBC over 100, individual mice M1-M3","[1]; 4x 100 mg/kg i.p., day 4",0.10
same,"Mouse survival in days, Average",[1]; [4],> 30 days
same,"Mouse survival in days, individual mice M1-M3",[1]; [4],30 days
same,% activity (reduction of parasitaemia),[1]; 4x 100 mg/kg p.o.,99.8%
same,% of control,[1]; 4x 100 mg/kg p.o.,0.22%
same,"Parasitized RBC after 30 d (microscope), individual mice",[1]; 4x 100 mg/kg p.o.,0.0
same,"Parasitized RBC over 100, Average",[1]; 4x 100 mg/kg p.o.,0.13
same,"Parasitized RBC over 100, individual mice M1-M3",[1]; 4x 100 mg/kg p.o.,0.00 and 0.30 and 0.10
same,"Mouse survival in days, Average",[1]; [5],27 days
same,"Mouse survival in days, individual mice M1-M3",[1]; [5],30 days (2×) and 20 days
same,cure of mice,[1]; 4 × 100 mg kg−1 i.p.,all mice treated were cured
same,cure of mice,[1]; 4 × 100 mg kg−1 oral,two thirds of the animals were cured
same,Hepatic Microsome Stability % remaining after 1 h,[2]; Human,~38%
same,Hepatic Microsome Stability % remaining after 1 h,[2]; Mouse,~38%
same,remaining at 1 h,[2]; human,38.5%
same,remaining at 1 h,[2]; mouse,38.5%
same,IC50,[3],3.1 ± 2.4 nM
